This data set in a line: Plasma CBD after IV administration. Format: in vivo, BALB/C mice. Particulars: mice, IV 12 mg/kg. On the procedure: A total of 18 female BALB/C mice aged 12 weeks were injected IV with a single dose of 12 mg/kg CBD formulation in cremophor:ethanol.
At the time-points detailed below, 3 mice were euthanized with CO2 and terminal blood was immediately collected from the retro-orbital sinus in labeled 0.5 ml K3 EDTA blood collection tubes (Mini Collect, Greiner-bio-one, Austria). The blood was centrifuged at 2000×g for 10 minutes before plasma was extracted, collected in labeled tubes and frozen at −20° C. immediately after collection. The samples were then stored at −80° C. pending analysis.
Time-points for the blood collection: 2 min, 1, 4, 8, 24 and 48 h.
CBD was extracted from plasma samples that were spiked with cannabigerol (CBG, 1 mg/ml in methanol, Sigma, Cat. C-141-1 Add lot) used as internal standard (IS) followed by dilution of the plasma five-fold in acetonitrile. After vigorous vortex it was centrifuged, and the upper phase was analyzed. Final IS concentration in the samples was 100 ng/ml.
Plasma extracts were analyzed by LC/MS method (Sciex (Framingham, MA, USA) Triple Quad™ 5500 mass spectrometer coupled with a Shimadzu (Kyoto, Japan) UHPLC System). The concentrations were calculated based on a calibration curve of CBD in plasma at a range of 1-1,000 ng/ml having 100 ng/ml of Internal Standard (IS).

We go through 1 compound from patent publication US20240009209A1, “PROTEIN-BOUND CANNABINOID FORMULATIONS AND USES THEREOF” (YISSUM RESEARCH DEVELOPMENT COMPANY OF THE HEBREW …, priority 2020, published 2024).

As for `C=C(C)[C@@H]1CCC(C)=C[C@H]1c1c(O)cc(CCCCC)cc1O` [free CBD, 2-[(1R,6R)-6-Isopropenyl-3-methylcyclohex-2-en1-yl]-5-pentylbenzene-1,3-diol], the “Plasma CBD Mean ± SD” value was “BLOD” (24 h); “below the limit of detection” (24 h, listed as CBD); “BLOD” (48 h); “below the limit of detection” (48 h, listed as CBD).
